Data reported in article PMC6832952, “Synthesis and Evaluation of Pyrimidine Steroids as Antiproliferative Agents” (Molecules, 2019).
Like-named read-outs stand apart in the source and are kept apart here.

Legend:
[1] = system: A549 (non-small cell lung) cells; test: Growth inhibition assay (NCI protocol), A549; format: cell-based, human; settings: 48 h exposure
From the text: (§1) We studied the antiproliferative activity of α,β-unsaturated ketones (2 and 6) and steroidal pyrimidines (3 and 7) against human cell lines following the guidelines of the National Cancer Institute. For the tests we selected five human solid tumor cell lines from diverse origins and one human fibroblast cell line as a model of non-tumor cells. These cell lines were chosen as representative of drug sensitive (A549, HBL-100, and HeLa) and drug resistant (T-47D and WiDr) monolayer cultures based on previous studies. The steroidal anticancer drugs abiraterone and galeterone were also tested for comparison purposes. […] This is a relevant finding, since our compounds are non-toxic to healthy cells, whilst the steroidal anticancer drugs inhibit the growth of fibroblasts at GI50 values as low as 4.5–5 µM.
(§2) The following densities (cells per well) were used: 2500 (A549, HBL-100, HeLa and SW1573), 5000 (T-47D, WiDr and SW1573/PGP), and 7000 (BJ-hTERT). […] Abiraterone and galeterone were used as reference drugs for antiproliferative tests, verapamil was used as a P-gp transport inhibitor in SW1573/Pgp experiments, and their stock solutions were prepared in DMSO at 40 mM. Paclitaxel and vinblastine were used as positive controls in SW1573/Pgp experiments and were initially dissolved in DMSO at 4 mM. For each test compound, the cells were exposed to serial decimal dilutions in the range of 0.001–100 μM for a period of 48 h. Cell culture medium containing verapamil was prepared by adding the final concentration of verapamil of 10 μM. For each product GI50 values were calculated according to the NCI formulas.

[2] = system: HBL-100 (breast) cells; test: Growth inhibition assay (NCI protocol), HBL-100; format: cell-based, human; settings: 48 h exposure
From the text: as §1, §2

[3] = system: HeLa (cervix) cells; test: Growth inhibition assay (NCI protocol), HeLa; format: cell-based, human; settings: 48 h exposure
From the text: as §1, §2

[4] = system: T-47D (breast) cells; test: Growth inhibition assay (NCI protocol), T-47D; format: cell-based, human; settings: 48 h exposure
From the text: as §1, §2

[5] = system: WiDr (colon) cells; test: Growth inhibition assay (NCI protocol), WiDr; format: cell-based, human; settings: 48 h exposure
From the text: as §1, §2

[6] = system: BJ-hTERT human fibroblast cells; test: Growth inhibition assay (NCI protocol), BJ-hTERT fibroblasts; format: cell-based; settings: 48 h exposure, non-tumor cells
From the text: as §1, §2

[7] = system: SW1573 (non-small cell lung) cells; test: Growth inhibition assay, SW1573 wild type; format: cell-based, human; settings: 48 h, without verapamil, read-out: GI50 SW1573 w/o Verapamil
From the text: (§3) Next, we studied if the compounds could be substrates for P-glycoprotein 1 (P-gp). P-gp is an important protein of the cell membrane that pumps xenobiotics out of cells. One of the resistance mechanisms to anticancer drugs involves the overexpression of P-gp by cancer cells, rendering these cancers multidrug resistant. Therefore, it is relevant to know whether compounds are substrates for P-gp or not. As a model to test the effect of P-gp overexpression in our compounds, we used a cell line-based assay. We selected one wild type human lung cancer cell line (SW1573) and its P-gp overexpressing variant (SW1573/PGP). In this test, cells were exposed to the compounds for 48 h in the absence or the presence of 10 µM verapamil, a well-known P-gp inhibitor [20].
(§4) The human solid tumor cell lines A549 (non-small cell lung), HBL-100 (breast), and HeLa (cervix), SW1573 (non-small cell lung), and its P-gp overexpressing variant (SW1573/Pgp), T-47D (breast), and WiDr (colon) were used in this study. These cell lines used in this study were kindly provided by Dr. Godefridus J. Peters (Cancer Center Amsterdam, Vrije Universiteit, Amsterdam, The Netherlands). BJ-hTERT human fibroblast cells were given by Dr. Raimundo Freire (Universidad de La Laguna, Canary Islands). All cells were grown in RPMI 1640 supplemented with 1 mM glutamine, 5% FBS and antibiotics. Cells were grown at 37 °C in a humidified atmosphere of 5% CO2 and maintained at low passage.
(§5) The antiproliferative activity was tested in vitro against human cancer cells using the protocol of the National Cancer Institute (NCI) of the USA16 with minor modifications. The following densities (cells per well) were used: 2500 (A549, HBL-100, HeLa and SW1573), 5000 (T-47D, WiDr and SW1573/PGP), and 7000 (BJ-hTERT). Samples for testing were dissolved initially in DMSO at 40 mM, i.e., 400 times the maximum test concentration. Abiraterone and galeterone were used as reference drugs for antiproliferative tests, verapamil was used as a P-gp transport inhibitor in SW1573/Pgp experiments, and their stock solutions were prepared in DMSO at 40 mM. Paclitaxel and vinblastine were used as positive controls in SW1573/Pgp experiments and were initially dissolved in DMSO at 4 mM. For each test compound, the cells were exposed to serial decimal dilutions in the range of 0.001–100 μM for a period of 48 h. Cell culture medium containing verapamil was prepared by adding the final concentration of verapamil of 10 μM. For each product GI50 values were calculated according to the NCI formulas.

[8] = system: P-gp; test: in vitro; settings: human
From the text: as §3, §4, §5

[9] = target: T1, P-glycoprotein 1 (P-gp) (Homo sapiens, UniProt P08183); test: P-glycoprotein assay (SW1573/PGP vs SW1573, resistance factor); format: cell-based; settings: for Rf w Verapamil / Rf w/o Verapamil: ratio between GI50 values in SW1573/PGP and SW1573 cells; for Rf w Verapamil: with 10 µM verapamil; for Rf w/o Verapamil: without verapamil
T1 construct: its P-gp overexpressing variant (SW1573/PGP); endogenous in cells; host or cells: SW1573 and SW1573/PGP (SW1573/Pgp) human non-small cell lung cancer cells, provided by Dr. G. J. Peters (Amsterdam)
T1 sequence (P08183 whole entry): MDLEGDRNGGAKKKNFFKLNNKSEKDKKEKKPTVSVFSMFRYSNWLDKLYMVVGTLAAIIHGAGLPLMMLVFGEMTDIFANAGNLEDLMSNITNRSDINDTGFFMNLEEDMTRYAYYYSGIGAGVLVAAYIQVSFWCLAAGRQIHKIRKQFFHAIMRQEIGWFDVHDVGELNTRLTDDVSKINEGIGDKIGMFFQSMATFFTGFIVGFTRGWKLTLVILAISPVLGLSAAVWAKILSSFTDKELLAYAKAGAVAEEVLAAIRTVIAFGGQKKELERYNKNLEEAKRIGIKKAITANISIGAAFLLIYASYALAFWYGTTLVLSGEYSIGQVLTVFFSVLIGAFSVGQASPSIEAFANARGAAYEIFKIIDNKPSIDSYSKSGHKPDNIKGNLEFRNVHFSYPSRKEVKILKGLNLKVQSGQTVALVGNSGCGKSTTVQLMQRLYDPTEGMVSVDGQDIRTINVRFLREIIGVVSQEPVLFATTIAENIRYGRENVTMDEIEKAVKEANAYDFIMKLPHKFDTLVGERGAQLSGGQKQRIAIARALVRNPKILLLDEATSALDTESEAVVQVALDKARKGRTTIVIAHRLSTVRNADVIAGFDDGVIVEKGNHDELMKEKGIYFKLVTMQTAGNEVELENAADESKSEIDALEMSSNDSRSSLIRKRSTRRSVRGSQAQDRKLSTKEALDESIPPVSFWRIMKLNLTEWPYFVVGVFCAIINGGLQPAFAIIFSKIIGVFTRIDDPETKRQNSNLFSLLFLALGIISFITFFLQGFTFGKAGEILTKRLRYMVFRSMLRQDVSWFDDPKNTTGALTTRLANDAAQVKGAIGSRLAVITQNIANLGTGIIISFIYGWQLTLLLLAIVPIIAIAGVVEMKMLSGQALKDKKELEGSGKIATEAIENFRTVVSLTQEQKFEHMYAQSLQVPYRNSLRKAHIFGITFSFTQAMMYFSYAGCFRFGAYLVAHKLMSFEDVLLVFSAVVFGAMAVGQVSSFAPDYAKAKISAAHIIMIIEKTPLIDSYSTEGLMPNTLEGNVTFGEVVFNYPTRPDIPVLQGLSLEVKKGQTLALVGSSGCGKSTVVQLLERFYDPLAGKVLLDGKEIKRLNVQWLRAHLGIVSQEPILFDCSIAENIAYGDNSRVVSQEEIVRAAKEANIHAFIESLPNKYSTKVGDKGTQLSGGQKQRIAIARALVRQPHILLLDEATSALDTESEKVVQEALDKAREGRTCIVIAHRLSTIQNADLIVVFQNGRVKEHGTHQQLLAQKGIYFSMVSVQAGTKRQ
From the text: as §3, §5

[10] = Solubility under protocol conditions; format: physicochemical; settings: growth inhibition protocol conditions
From the text: as §1
as §2, with “For each test compound, the cells were exposed to serial decimal dilutions in the range of 0.001–100 μM for a period of 48 h. Cell culture medium containing verapamil was prepared by adding the final concentration of verapamil of 10 μM.” left out

[11] = system: human solid tumor cell lines; test: Antiproliferative activity against the panel of human solid tumor cell lines; format: cell-based; settings: A549, HBL-100, HeLa, T-47D, WiDr, read-out: GI50 range against all tumor cells
From the text: as §4
The antiproliferative activity was tested in vitro against human cancer cells using the protocol of the National Cancer Institute (NCI) of the USA16 with minor modifications. The following densities (cells per well) were used: 2500 (A549, HBL-100, HeLa and SW1573), 5000 (T-47D, WiDr and SW1573/PGP), and 7000 (BJ-hTERT). Samples for testing were dissolved initially in DMSO at 40 mM, i.e., 400 times the maximum test concentration. […] For each product GI50 values were calculated according to the NCI formulas.

[12] = system: SW1573/PGP cells; test: in vitro
From the text: as §3, §4, §5

[13] = Homo sapiens, SW1573, reference drugs PTX and VB

| Compound | GI50 ([1]; Homo sapiens, A549) [µM] | GI50 ([2]; Homo sapiens, HBL-100) [µM] | GI50 ([3]; Homo sapiens, HeLa) [µM] | GI50 ([4]; Homo sapiens, T47D) [µM] | GI50 ([5]; Homo sapiens, WiDr) [µM] | GI50 ([6]; Homo sapiens, Fibroblast) [µM] | GI50 ([7]; Homo sapiens, SW1573) [µM] | GI50 at 48 h [8] [µM] | Rf w Verapamil [9] | Rf w/o Verapamil [9] | melting point [°C] | further results |
| --- | --- | --- | --- | --- | --- | --- | --- | --- | --- | --- | --- | --- |
| C[C@]12CC[C@H]3[C@@H](CC=C4C[C@@H](O)CC[C@@]43C)[C@@H]1CC[C@@H]2C(=O)/C=C/c1ccccc1 [Compound 2, (E)-21-benzyliden-3β-hydroxypregn-5-en-20-one] | 23 ± 1.6 | 19 ± 3.7 | 3.3 ± 0.3 | 9.9 ± 3.5 | 6.3 ± 0.5 | > 100 | 23 ± 0.2 | 29 ± 5.5 | 1.5 | 1.2 |  | substrate for P-gp ([9]; SW1573 vs SW1573/PGP, with or without 10 µM verapamil): not substrates for P-gp |
| CC(=O)O[C@H]1C(=O)[C@@]2(C)[C@H]([C@H](OC(=O)c3ccccc3)[C@]3(O)C[C@H](OC(=O)[C@H](O)[C@@H](NC(=O)c4ccccc4)c4ccccc4)C(C)=C1C3(C)C)[C@]1(OC(C)=O)CO[C@@H]1C[C@@H]2O [PTX, Paclitaxel, reference compound] |  |  |  |  |  |  |  | 0.196 ± 0.053 | 2.6 | 128 |  | GI50 [7, 13]: 0.0015 ± 0.0005 µM |
| C[C@]12CC[C@H](O)CC1=CC[C@@H]1[C@@H]2CC[C@]2(C)C(c3cccnc3)=CC[C@@H]12 [Abiraterone, abiraterone, reference compound] | 95 ± 0.8 | > 100 | 7.9 ± 0.5 | 24 ± 4.5 | 42 ± 7.7 | 4.5 ± 1 |  |  |  |  |  |  |
| C[C@]12CC[C@H](O)CC1=CC[C@@H]1[C@@H]2CC[C@]2(C)C(n3cnc4ccccc43)=CC[C@@H]12 [Galeterone, galeterone, reference compound] | 3.9 ± 1.3 | 10 ± 0.9 | 5.3 ± 0.4 | 2.1 ± 0.1 | 2.7 ± 0.2 | 5 ± 1.3 |  |  |  |  |  |  |
| CC[C@]1(O)C[C@@H]2CN(CCc3c([nH]c4ccccc34)[C@@](C(=O)OC)(c3cc4c(cc3OC)N(C)[C@H]3[C@@](O)(C(=O)OC)[C@H](OC(C)=O)[C@]5(CC)C=CCN6CC[C@]43[C@@H]65)C2)C1 [VB, vinblastine, reference compound] |  |  |  |  |  |  |  | 2.05 ± 0.682 | 1.3 | 2388 |  | GI50 [7, 13]: 0.0009 ± 0.0003 µM |
| CC1=C2C(CC3C4CC=C5C[C@@H](O)CC[C@]5(C)C4CC[C@]23C)NC(=N)N1 (stereo partly drawn) [Compound 7a, 1′,3′-dihydro-2′-imino-4′-methylpyrimidin-(6′,5′:16,17)-androst-5-en-3β-ol] |  |  |  |  |  |  |  |  |  |  | 108 to 110 | solubility under protocol conditions [10]: poor solubility |
| CC1=C2C(CC3C4CC=C5C[C@@H](O)CC[C@]5(C)C4CC[C@]23C)NC(=S)N1 (stereo partly drawn) [Compound 7c, 1′,3′-dihydro-4′-methyl-2′-thionepyrimidin-(6′,5′:16, 17)-androst-5-en-3β-ol] | 3.4 ± 0.5 | 3.7 ± 1 | 2.6 ± 0.7 | 3 ± 0.5 | 3.1 ± 0.4 | > 100 | 9.4 ± 1 | 16 ± 1.3 | 1.1 | 1.7 | 208 to 210 | GI50 [11]: 2.6 to 3.7 µM |
| CC1=C2C(CC3C4CC=C5C[C@@H](O)CC[C@]5(C)C4CC[C@]23C)NC(=O)N1 (stereo partly drawn) [Compound 7b, 1′,3′-dihydro-4′-methyl-2′-oxopyrimidin-(6′,5′:16,17)-androst-5-en-3β-ol] | 13 ± 3.7 | 15 ± 3.2 | 3.4 ± 0.2 | 15 ± 1.9 | 18 ± 1.8 | > 100 | 34 ± 4.7 | 49 ± 4.4 | 1.4 | 1.5 | 163 to 164 |  |
| C[C@]12CCC3C(CC=C4C[C@@H](O)CC[C@@]43C)C1CCC2C1=CC(c2ccccc2)NC(=S)N1 (stereo partly drawn) [Compound 3c, 17β-(1′,3′,6′-trihydro-6′-phenyl-2′-thioxopyrimidin-4′-yl)-androst-5-en-3β-ol] | 7.7 ± 1 | 45 ± 7.9 | 11 ± 1.5 | 13 ± 2.3 | 9.2 ± 1.6 | > 100 | 12 ± 2.7 | 38 ± 6.1 | 1.8 | 3.2 | 208 to 210 |  |
| C[C@]12CCC3C(CC=C4C[C@@H](O)CC[C@@]43C)C1CCC2C1=CC(c2ccccc2)NC(=O)N1 (stereo partly drawn) [Compound 3b, 17β-(1′,3′,6′-trihydro-2′-oxo-6′-phenylpyrimidin-4′-yl)-androst-5-en-3β-ol] | 11 ± 2.9 | 16 ± 1.3 | 14 ± 3.6 | 15 ± 1.3 | 15 ± 3.5 | 97 ± 5.9 |  | 34 ± 13 | 1.6 | 1.9 | 108 to 110 |  |
| C[C@]12CCC3C(CC=C4C[C@@H](O)CC[C@@]43C)C1CCC2C1=CC(c2ccccc2)NC(=N)N1 (stereo partly drawn) [Compound 3a, 17β-(2′-imino-1′,3′,6′-trihydro-6′-phenylpyrimidin-4′-yl)-androst-5-en-3β-ol] | 4.4 ± 1 | 23 ± 2.8 | 6.1 ± 1.2 | 8.8 ± 2.2 | 8.3 ± 1.1 | > 100 | 6.9 ± 0.5 | 10 ± 4.2 | 0.7 | 1.5 | 128 |  |
| 20-Oxopregna-5,16-dien-3β-yl Acetate [Compound 6] |  |  |  |  |  |  |  |  |  |  |  | GI50 [1]: 26 ± 5.2 µM; GI50 [2]: 64 ± 1.6 µM; GI50 [3]: 3.6 ± 0.4 µM; GI50 [4]: 29 ± 4.5 µM; GI50 [5]: 37 ± 2.1 µM; GI50 [6]: > 100 µM; GI50 [7]: 72 ± 10 µM; GI50 [12]: > 100 µM |
